Results on eleven compounds are retold here after US11111217B2, “2-arylbenzimidazoles as Ppargc1a activators for treating neurodegenerative diseases” (The Board of Trustees of the Leland Stanford Junior …, priority 2018, dated 2021).

The nature of data set [1]: Pharmacokinetic study (mouse), levels of API after prodrug dosing. The following applies: mice, 10 mg/kg p.o., 1 h, 2 h, 4 h; for brain levels of API (example 1 compound): brain at 0.5 h, LCMS (FIG. 2); for liver levels of API (example 1 compound): liver at 0.5 h, LCMS (FIG. 3); for plasma levels of API (example 1 compound): plasma at 0.5 h, LCMS (FIG. 1). The class given is in vivo. Here is the method: Pharmacokinetic studies (mouse) were performed on the example 1, 6-P, 8-P, and 11-P compounds of the present invention. The example 1, 6-P, 8-P, and 11-P compounds were dosed in mice at 10 mg/kg p.o. (n=2). Plasma, brain, and liver were harvested at 0.5 h, 1 h, 2 h, and 4 h. The samples were analyzed by LCMS to determine levels of the example 1 compound, i.e., the active pharmaceutical ingredient (API) for prodrug examples 6-P, 8-P, and 11-P.

In data set [2] the test system is TNF-α production by BV2 cells or PBMC. As to the kind of experiment: Cellular assay to measure TNF-α inhibition (LPS-stimulated, ELISA). The following applies: BV2 cells or PBMC (not specified), LPS 100 ng/ml over 24 hours, relative to DMSO vehicle; compound concentration not stated. It counts as cell-based, murine (BV2) or human (PBMC). From the text:
Oxidative metabolism exerts an anti-inflammatory effect on myeloid cell phenotype (O'Neill L A, Front Immunol. 2014) and Ppargc1a can promote this energy metabolic pathway (Spiegelman BM, Novartis Found Symp. 2007). Thus, pharmacological activation of Ppargc1a would be expected to inhibit the inflammatory response of myeloid cells. This phenomenon can be measured in cultures by a TNF-α inhibition assay.
Cellular Assay Protocol to Measure TNF-α Inhibition
The murine myeloid cell line BV2 or human peripheral blood mononuclear cells (PBMC) are cultured in RPMI 1640 media (Cat #11875119, Gibco) supplemented with 10% fetal bovine serum and 1% L-glutamine 1% penicillin. These cells are then stimulated with 100 ng/ml of lipopolysaccharide (LPS, O111:B34, Cat # L2630, Sigma) over 24 hours. LPS stimulation results in the secretion of the inflammatory cytokine TNF-α by BV2 cells or PBMC, which can be quantified by ELISA in culture supernatant samples per manufacturer's protocol (Cat #558273 for BV2 and Cat #558299 for PBMC, BD Biosciences). To determine whether exampl compounds 1-78 inhibit TNF-α production by BV2 cells or PBMC, the cells were cultured in the presence of the compounds at different concentrations, and fold reduction in TNF-α production relative to TNF-α production by the same cells cultured in the presence of dimethylsulfoxide (as vehicle control) was determined.

Data set [3] can be described thus: Microsome stability assay, human liver microsomes. To be noted: pH 7.4, 1 μM test compound, NADPH 1 mM, 37° C., 0-40 mins, read-out: HLM t1/2. It counts as in vitro ADME. Here is the method:
(§1) Microsome Stability Assay Protocol
(§2) Human liver microsomes (Corning #452117 lot 38291) or Mouse liver microsomes (Corning #452701, lot #6328004) were separately combined at a final concentration of […] with KxPO4 pH 7.4 (100 mM), MgCl2 (10 mM), and test compound (1 μM) and pre-incubated (10 min, 37° C.). Next, NADPH (1 mM) was added to begin reactions (total volume 100 μL). At various time points (0, 10, 20, and 40 mins), reactions were quenched with Clem stop solution (100 μL, 625 ng/mL) (Cyprotex) in Acetonitrile. Samples were centrifuged at 4000 g for 20 mins, diluted (75 μL into 75 μL 0.1% formic acid in water), and analyzed by LC-MS/MS.

A short description of data set [4]: Microsome stability assay, mouse liver microsomes. To be noted: pH 7.4, 1 μM test compound, NADPH 1 mM, 37° C., 0-40 mins, read-out: MLM t1/2. The class given is in vitro ADME. Here is the method: as §1, §2
Background: Microsomes from liver hold many membrane-bound enzymes, among them those of drug oxidation.

The nature of data set [5]: Caco-2 permeability assay. The following applies: human, Caco-2, pH 7.4, with elacridar (concentration not stated). For orientation: Passage across Caco-2 layers is used to estimate intestinal permeability.
Data set [6] concerns Caco-2 cells. Nature of the data set: Caco-2 permeability assay. The following applies: 10 μM, HBSS pH 7.4, 37° C., 2 h; for Caco2 A → B: without elacridar.
Method: Caco-2 Permeability Assay Protocol
(§3) Caco-2 cells were maintained in DMEM in an atmosphere of 5% CO2. For transport experiments 5×10^5 cells/well of were seeded on polycarbonate filter inserts and allowed to grow and differentiate for 21±4 days before the cell monolayers were used for experiments. Apparent permeability coefficients were determined for A→B and B→A directions with and without the presence of elacridar as a transporter inhibitor. Up to three test items and reference compounds were dissolved in Hank's balanced salt solution at pH 7.4 to yield a final concentration of 10 μM.
(§4) The assays were performed in HBSS containing 25 mM HEPES (pH 7.4) at 37° C. Prior to the study, the monolayers were washed in prewarmed HBSS. At the start of the experiments prewarmed HBSS containing the test items was added to the donor side of the monolayer and HBSS without test items was added to the receiver side. Aliquots of the receiver side were taken over the 2 h incubation period; aliquots of the donor side were taken at 0 hand 2 h. Aliquots were diluted with an equal volume of methanol/water with 0.1% formic acid containing the internal standard. The mixture was analyzed by LC-MS/MS. The apparent permeability coefficients (Papp) were calculated using the formula: Papp=(dCrec/dt)/(A×C0,donor)]×106 with dCrev/dt being the change in concentration in the receiver compartment with time, C0,donor the concentration in the donor compartment at time 0, and A the area of the compartment with the cells.
The test system of data set [7] is Caco-2 cells. The following applies: human, Caco-2, 2 h, 10 μM, pH 7.4.
Method: Caco-2 Permeability Assay Protocol
as §3, §4
The next data set is described as follows: in vitro. The following applies: human, Caco-2, pH 7.4.

Structures are written as SMILES. Where two headings read alike, the source gives them in different places.

Method for in vitro: Caco-2 Permeability Assay Protocol
as §3, §4

`CC(C)(C)c1ccc(-c2nc3ccccc3n2COC(=O)CCC(=O)O)cc1` [Example 6-P, 4-((2-(4-(tert-Butyl)phenyl)-1H-benzo[d]imidazol-1-yl)methoxy)-4-oxobutanoic acid]: in data set [1], the “brain levels of API (example 1 compound)” value is recorded as “measurable amounts”, the “liver levels of API (example 1 compound)” value is “measurable amounts” and the “plasma levels of API (example 1 compound)” value (shortened to “plasma levels of API”) was “measurable amounts”.

Consider `CC(C)(C)c1ccc(-c2nc3ccccc3n2COP(=O)([O-])[O-])cc1.[Na+].[Na+]` [Example 11-P, Disodium ((2-(4-(tert-butyl)phenyl)-1H-benzo[d]imidazol-1-yl)methyl) phosphate], for which, in data set [1], the “brain levels of API (example 1 compound)” value is given as “measurable amounts”, the “liver levels of API (example 1 compound)” value is listed as “measurable amounts” and the “plasma levels of API” value is listed as “measurable amounts”.

As to `CC(C)(C)c1ccc(-c2nc3ccccc3n2COC(=O)c2ccc(CN)cc2)cc1.Cl` [Example 8-P, (4-(((2-(4-(tert-butyl)phenyl)-1H-benzo[d]imidazol-1-yl)methoxy)carbonyl)-phenyl)methylammonium hydrochloride], in data set [1], the “brain levels of API (example 1 compound)” value is given as “measurable amounts”, the “liver levels of API (example 1 compound)” value was “measurable amounts” and the “plasma levels of API” value is recorded as “measurable amounts”.

`CC(C)(C)c1ccc(-c2nc3cc(C(F)(F)F)ccc3[nH]2)cc1` [Example 42, 2-(4-tert-Butylphenyl)-5-(trifluoromethyl)-1H-benzo[d]imidazole]: in data set [2], the “TNF α Inhibition” value is “A (A = >80% inh.)”. Besides, in data set [3], the half-life at 1 μM is 83.8 min. Besides, the half-life at 1 μM in data set [4] is 110 min. This compound yielded an apical-to-basolateral permeability (Papp A→B) at 2 h, 10 μM in data set [5] of 0.0408 ×10⁻⁶ cm/s. Further, in the data set with Caco-2 cells [6], the “Caco2 B → A” value amounted to 1.2 nm/s and the “Caco2 A → B” value was 0.878 nm/s.

In the case of `CC(C)(C)c1ccc(-c2nc3c(F)c(F)ccc3[nH]2)cc1` [Example 55, 2-(4-tert-Butylphenyl)-4,5-difluoro-1H-benzo[d]imidazole], in data set [2], the “TNF α Inhibition” value is “A (A = >80% inh.)”. For the same compound, the half-life at 1 μM in data set [3] worked out at 20.6 min; in data set [4], 21.4 min. The Papp A→B at 2 h, 10 μM in data set [5] is 0.0693 ×10⁻⁶ cm/s. The “Caco2 B → A” value with Caco-2 cells [6] is reported as 9.94 nm/s. Further, the “Caco2 A → B” value in the data set with Caco-2 cells [6] is given as 4.27 nm/s.

In the case of `COc1ccc(-c2nc3ccccc3[nH]2)cc1` [Example 21, 2-(4-Methoxy-phenyl)-1H-benzo[d]imidazole], the “TNF α Inhibition” value in data set [2] is on record as “A (A = >80% inh.)”. Moreover, the half-life at 1 μM in data set [3] is 4.2 min; in data set [4], 3.2 min. The Papp A→B at 2 h, 10 μM in data set [5] worked out at 3.31 ×10⁻⁶ cm/s. Moreover, the “Caco2 A → B” value in the data set with Caco-2 cells [6] is on record as 93.2 nm/s.

`CC(C)(C)c1ccc(-c2nc3ccccc3[nH]2)cc1` [Example 1, 2-(4-(tert-Butyl)phenyl)-1H-benzo[d]imidazole]: in data set [2], the “TNF α Inhibition” value is reported as “A (A = >80% inh.)”. Besides, the half-life at 1 μM worked out at 14 min in data set [3] and 16.7 min in data set [4]. The “Caco2 B → A” value in the data set with Caco-2 cells [7] amounted to 31.5 nm/s. The same compound had an apparent permeability from apical to basolateral (Papp A→B) at 2 h, 10 μM in the data set “in vitro” of 0.659 ×10⁻⁶ cm/s.

Regarding `CC(C)(C)c1ccc(-c2nc3c(C(F)(F)F)cccc3[nH]2)cc1` [Example 56, 2-(4-tert-Butylphenyl)-4-(trifluoromethyl)-1H-benzo[d]imidazole], the “TNF α Inhibition” value in data set [2] is “A (A = >80% inh.)”. For the same compound, the values for the half-life at 1 μM in data set [3] and in data set [4] were 103 min and 23.2 min, respectively. Also, the apical-to-basolateral permeability (Papp A→B) at 2 h, 10 μM in data set [5] was found to be 0.0849 ×10⁻⁶ cm/s. The “Caco2 B → A” value with Caco-2 cells [6] is given as 1.73 nm/s. In the data set with Caco-2 cells [6], the “Caco2 A → B” value came out at 0.748 nm/s.

Take `CC(C)(C)c1cccc(-c2nc3ccccc3[nH]2)c1` [Example 58, 2-(3-tert-Butylphenyl)-1H-benzo[d]imidazole]: in data set [2], the “TNF α Inhibition” value is reported as “A (A = >80% inh.)”. Further, the half-life at 1 μM in data set [3] came to 6.9 min. For the same compound, in data set [4], the half-life at 1 μM was determined as 4.7 min. The Papp A→B at 2 h, 10 μM in data set [5] worked out at 0.86 ×10⁻⁶ cm/s. In addition, in the data set on Caco-2 cells [6], the “Caco2 B → A” value is recorded as 30.9 nm/s and the “Caco2 A → B” value came to 21 nm/s.

Regarding `CC(C)(C)c1ccc(-c2nc3c(F)c(F)c(F)c(F)c3[nH]2)cc1` [Example 63, 2-(4-tert-Butylphenyl)-4,5,6,7-tetrafluoro-1H-benzo[d]imidazole], the “TNF α Inhibition” value in data set [2] was “A (A = >80% inh.)”. Further, the half-life at 1 μM in data set [3] turned out to be 59.8 min; in data set [4] it was 132 min. In data set [5], this compound displayed an apparent permeability from apical to basolateral (Papp A→B) at 2 h, 10 μM of 0.0336 ×10⁻⁶ cm/s. The “Caco2 B → A” value in the data set with Caco-2 cells [6] came out at 1.31 nm/s. Also, in the data set with Caco-2 cells [6] (with elacridar as transporter inhibitor), the “Caco2 A → B w/ elacridar” value amounted to 0.005 nm/s.

Take `[2H]c1c([2H])c([2H])c2[nH]c(-c3ccc(C(C)(C)C)cc3)nc2c1[2H]` [Example 60, 2-(4-tert-Butylphenyl)-4,5,6,7-tetradeuterio-1H-benzo[d]imidazole]: the “TNF α Inhibition” value in data set [2] is “A (A = >80% inh.)”. Besides, the half-life at 1 μM came to 14.3 min in data set [3] and 19.8 min in data set [4]. In addition, the apical-to-basolateral permeability (Papp A→B) at 2 h, 10 μM in data set [5] stood at 0.916 ×10⁻⁶ cm/s. In addition, the “Caco2 B → A” value in the data set with Caco-2 cells [6] was 40.7 nm/s. In the data set on Caco-2 cells [6], the “Caco2 A → B” value amounted to 15.8 nm/s.

As usually defined, the Papp A→B is how fast a substance crosses the layer from the apical side. Low readings indicate poor permeation, high ones ready permeation.
